# Source: paper PMC12844237, “A Novel Quinolone JH62 (E-2-(Tridec-4-en-1-yl)-quinolin-4(1H)-one) from Pseudomonas aeruginosa Exhibits Potent Anticancer Activity” (Microorganisms, 2025)
# How the values were obtained:
# [1] = tested on: BxPC3: human pancreatic cancer cell lines; test: WST-1 cell viability, BxPC3; assay type: cell-based; settings: BXPC-3, BxPC3 (pancreatic) cancer cell line
# Text: (§1) Different cells were utilized as follows: MEF: murine embryonic fibroblast (RRID: CVCL_L690); AML12: mouse liver cell lines (RRID: CVCL_0140); WI-38: human lung fibroblast cell lines (RRID: CVCL_0579); THLE-2: human liver epithelial cell lines (RRID: CVCL_3803); A549: human lung cancer cell lines (RRID: CVCL_0023); HEPG2: human liver cancer cell lines (RRID: CVCL_0027); HEP3B: human hepatoma cell lines (RRID: CVCL_0326); BxPC3: human pancreatic cancer cell lines (RRID: CVCL_0186); U87: human primary glioblastoma cell lines (RRID: CVCL_0022); DU145: human prostate cancer cell lines (RRID: CVCL_0105); MCF7: human breast cancer cell lines (RRID: CVCL_0031); HeLa: human cervical cancer cell lines (RRID: CVCL_0030); HCT116: human colon cancer cell lines (RRID: CVCL_0291). Cells were maintained in Dulbecco’s modified Eagle’s medium (DMEM, Gibco) supplemented with L-glutamine (Lonza) (2 mM), 10% fetal bovine serum (FBS, Hyclone), 1 × non-essential amino acids, and sodium pyruvate (1 mM). THLE-2 cells were maintained in THLE-2 Cell Complete Medium (Zhong Qiao Xin Zhou, Shanghai, China). Cells were incubated at 37 °C in a humidified incubator with 5% CO2. […]
# (§2) Cell viability was assessed using the WST-1 assay, based on a previously reported method with slight modifications. […] Absorbance at OD450 was measured using a microplate reader (Synergy H1; BioTek Instruments, Winooski, VT, USA).
# cancer cell lines = test: WST-1 cell viability, panel of cancer cell lines; assay type: cell-based; settings: Homo sapiens; across the tested cancer cell lines
# Experimental: Cell viability was assessed using the WST-1 assay, based on a previously reported method with slight modifications. Briefly, cells were seeded at 1 × 10^4 cells per well in 96-well plates and then treated with different doses of JH62 or DOX for 0–72 h. The cells used included non-cancer cells (MEF, AML12, WI-38, and THLE-2) and cancer cells (A549, HEPG2, HEP3B, BxPC3, U87, DU145, MCF7, HeLa, and HCT116). The WST-1 reagent (Roche, Shanghai, China) was added to each well (10% vol/vol final concentration), followed by incubation for 3 h at 37 °C. Absorbance at OD450 was measured using a microplate reader (Synergy H1; BioTek Instruments, Winooski, VT, USA).
# [2] = tested on: A549 injected xenograft mouse model; test: Tumorigenicity assay, xenograft mouse model; assay type: in vivo, BALB/c nude mice
# Experimental: Tumorigenicity assays were performed using BALB/c nude mice, adapted from previously described protocols with slight modifications. To establish the xenograft cancer model, cancer cells (1 × 10^6) were subcutaneously injected into the right dorsal side of 6-week-old male BALB/c nude mice to induce tumor formation. The mice were randomly divided into 2 groups (n = 15). One group served as the control, and the other groups were treated with JH62 at doses of 10 mg/kg, via intraperitoneal injection twice a week. The mice in the control group were administered an equal volume of DMSO as the solvent control. The tumor sizes were measured weekly for three weeks. After that, the mice were sacrificed, and the tumors were isolated and weighed. All animal studies were approved by the Ethics Committee of South China Agricultural University.
# To evaluate the efficacy of JH62 in inhibiting tumorigenesis in vivo, a cancer xenograft model was established by transplanting cancer cells into the right flank of nude mice. The mice were treated with JH62 (10 mg/kg body weight) twice weekly for three weeks, and tumor volume changes were regularly monitored during this period. […] After 20 days of treatment, the average weight of solid tumors in the JH62-treated group was 186.3 mg, compared to 693.4 mg in the control group. The average tumor size in the control group was approximately 900 mm^3, while in the JH62-treated group, it was only about 190 mm^3 (Figure 2H,I).
# A549 cells = test: Comet assay; assay type: cell-based, human; settings: A549, 1, 8, and 12 h
# Experimental: Residual DNA damage was detected by alkaline single cell gel electrophoresis (Comet Assay) using the Trevigen Comet Assay Kit (Trevigen, Gaithersburg, MD, USA) following the manufacturer’s protocol with slight modifications. […] The treated cells were trypsinized and pelleted by centrifugation. The cell pellets were washed and resuspended in 2 mL of ice-cold PBS. The cell suspension was mixed 1:10 (vol/vol) with low-melting point agar at 42 °C and immediately pipetted onto a CometSlide™. Slides were incubated at 4 °C in the dark for 30 min, immersed in chilled lysis solution and incubated again at 4 °C for 30 min. Slides were placed in a horizontal electrophoresis chamber and electrophoresed with buffer NaOH (0.3 M) and EDTA (1 mM) at 1 V/cm for 15 min. Samples were dried and stained with Vista Green DNA dye (Cell Biolabs, Singapore). Comet tails were imaged using a model DM 2500 fluorescent microscope (Leica, Wetzlar, Germany) and quantified by Komet 5.5 software (Andor Technology, Belfast, UK). A minimum of 50 cells were scored per treatment. All experiments were performed independently in triplicate.
# [3] = tested on: HeLa: human cervical cancer cell lines; test: WST-1 cell viability, HeLa; assay type: cell-based; settings: HeLa (cervical) cancer cell line
# Text: as §1, §2
# [4] = tested on: MCF7: human breast cancer cell lines; test: WST-1 cell viability, MCF7; assay type: cell-based; settings: MCF7 (breast) cancer cell line
# Text: as §1, §2
smiles,measurement,setting,value
"CCCCCCCC/C=C/CCCc1cc(=O)c2ccccc2[nH]1 [JH62, E-2-(tridec-4-en-1-yl)-quinolin-4(1H)-one]",IC50,[1],15 ± 0.4 µM
same,IC50,cancer cell lines,< 20 µM
same,average weight of solid tumors,"[2]; 10 mg/kg intraperitoneal twice weekly, after 20 days of treatment, control 693.4 mg",186.3 mg
same,average tumor size,"[2]; 10 mg/kg intraperitoneal twice weekly, three weeks, control approximately 900 mm^3",about 190 mm^3
same,reduced tumor volume,"[2]; xenograft mice, 10 mg/kg",79%
same,reduced tumor weight,"[2]; xenograft mice, 10 mg/kg",73%
same,comet tail analysis,A549 cells,maintenance of DNA integrity
same,IC50,[3],13.6 ± 2.7 µM
same,IC50,[4],13.9 ± 1.3 µM
